According to ChEMBL document CHEMBL1201862, “PubChem BioAssay data set” (2004):
The source made the active and inactive calls.

Assays:
HEK293 [1] = assay: PMA/Ionomycin induced NF-kB luciferase assay in 293- NF-kB-Luc stable cells. [Related pubchem assays: 1299, 1270, 1295, 1375, 1287, 1281, 1293, 1291, 1289, 1280, 465, 1364, 1282, 1372, 1365, 1370, 1367, 1366, 1269, 1373, 1292, 1290, 1302, 1371, 1283, 1271, 1294, 1374, 1368, 1369 ]; assay type: functional, cell-based; settings: Homo sapiens
[2] = target: Luciferin 4-monooxygenase (Photinus pyralis, UniProt P08659); assay: In vitro luciferase assay using purified luciferase. [Related pubchem assays: 1299, 1270, 1295, 1375, 1287, 1281, 1293, 1291, 1289, 1280, 465, 1364, 1282, 1372, 1365, 1370, 1367, 1366, 1266, 1373, 1292, 1290, 1302, 1371, 1283, 1271, 1294, 1374, 1368, 1369 ]
Sequence of Luciferin 4-monooxygenase (P08659 whole entry): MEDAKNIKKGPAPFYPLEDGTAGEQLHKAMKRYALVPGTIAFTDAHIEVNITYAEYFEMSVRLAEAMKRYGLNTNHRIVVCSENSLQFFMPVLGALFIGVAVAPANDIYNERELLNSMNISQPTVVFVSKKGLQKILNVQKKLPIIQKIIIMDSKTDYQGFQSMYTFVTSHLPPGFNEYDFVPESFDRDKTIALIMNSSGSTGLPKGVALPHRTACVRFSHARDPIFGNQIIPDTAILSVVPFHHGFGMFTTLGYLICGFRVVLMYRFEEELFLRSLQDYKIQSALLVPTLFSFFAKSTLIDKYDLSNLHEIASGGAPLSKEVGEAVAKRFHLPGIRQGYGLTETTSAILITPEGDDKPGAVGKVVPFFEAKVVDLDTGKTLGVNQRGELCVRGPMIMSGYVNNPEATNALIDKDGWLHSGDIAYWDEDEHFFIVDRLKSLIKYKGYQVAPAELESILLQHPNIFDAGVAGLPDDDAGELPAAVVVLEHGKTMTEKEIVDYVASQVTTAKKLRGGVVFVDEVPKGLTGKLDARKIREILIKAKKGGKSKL

HEK293 [3] = assay: PMA/Ionomycin-induced IL-8 production in HEK293- NF-kB-Luc stable cells. [Related pubchem assays: 1299, 1295, 1375, 1287, 1281, 1293, 1291, 1289, 1280, 465, 1364, 1282, 1372, 1365, 1367, 1366, 1266, 1269, 1373, 1292, 1290, 1302, 1371, 1283, 1271, 1294, 1374, 1368, 1369 ]; assay type: functional, cell-based; settings: Homo sapiens
HEK293 [4] = assay: Cytotoxicity assay in HEK293 cells. [Related pubchem assays (depositor defined):AID1266, AID1269, AID1270, AID1271, AID1280, AID1281, AID1282, AID1283, AID1287, AID1289, AID1290, AID1291, AID1292, AID1293, AID1294, AID1295, AID1299, AID1302, AID1364, AID1365, AID1366, AID1367, AID1369, AID1370, AID1371, AID1372, AID1373, AID1374, AID1375, AID1384 …; assay type: functional, cell-based; settings: Homo sapiens
HEK293 [5] = assay: TNF Induced NF-kB Luciferase in 293-NF-kB-Luc Stable Cells. [Related pubchem assays: 1266, 1299, 1269, 1373, 1292, 1290, 1302, 1371, 1283, 1270, 1295, 1271, 1375, 1294, 1374, 1281, 1293, 1291, 1289, 1280, 465, 1368, 1364, 1282, 1372, 1365, 1369, 1370, 1367, 1366 ]; assay type: functional, cell-based; settings: Homo sapiens
HEK293 [6] = assay: HEK293T cell viability loss, resazurin readout – resazurin fluorescence, cytotoxicity control for NF-kB activator project, SAR follow-up (AID 493251); assay type: functional, cell-based; settings: Homo sapiens
Jurkat = assay: SAR Analysis of small molecule inhibitors of T-cell specific antigen receptor-induced NF-kB activation in a Jurkat cell line using a luminescence assay - Set 2. [Related pubchem assays (depositor defined):AID435003, AID435012, AID465]; assay type: functional, cell-based; settings: Homo sapiens
HEK293 [7] = assay: SAR Analysis of small molecule inhibitors of T-cell specific antigen receptor-induced NF-kB activation in a HEK-293T cell line using a luminescence assay - Set 2. [Related pubchem assays (depositor defined):AID435003, AID435012, AID489026]; assay type: functional, cell-based; settings: Homo sapiens
[8] = target: Eukaryotic translation initiation factor 4H (Homo sapiens, UniProt Q15056); assay: eIF4H binding inhibition – biochemical, uHTS, fluorescence polarization, translation initiation inhibitor project, primary screen (AID 2012)
[9] = target: Polyadenylate-binding protein 1 (Homo sapiens, UniProt P11940); assay: blockers of PABP interaction with poly(A) – biochemical, fluorescence polarization, […] (AID 2014)
Sequence of Polyadenylate-binding protein 1 (P11940 whole entry): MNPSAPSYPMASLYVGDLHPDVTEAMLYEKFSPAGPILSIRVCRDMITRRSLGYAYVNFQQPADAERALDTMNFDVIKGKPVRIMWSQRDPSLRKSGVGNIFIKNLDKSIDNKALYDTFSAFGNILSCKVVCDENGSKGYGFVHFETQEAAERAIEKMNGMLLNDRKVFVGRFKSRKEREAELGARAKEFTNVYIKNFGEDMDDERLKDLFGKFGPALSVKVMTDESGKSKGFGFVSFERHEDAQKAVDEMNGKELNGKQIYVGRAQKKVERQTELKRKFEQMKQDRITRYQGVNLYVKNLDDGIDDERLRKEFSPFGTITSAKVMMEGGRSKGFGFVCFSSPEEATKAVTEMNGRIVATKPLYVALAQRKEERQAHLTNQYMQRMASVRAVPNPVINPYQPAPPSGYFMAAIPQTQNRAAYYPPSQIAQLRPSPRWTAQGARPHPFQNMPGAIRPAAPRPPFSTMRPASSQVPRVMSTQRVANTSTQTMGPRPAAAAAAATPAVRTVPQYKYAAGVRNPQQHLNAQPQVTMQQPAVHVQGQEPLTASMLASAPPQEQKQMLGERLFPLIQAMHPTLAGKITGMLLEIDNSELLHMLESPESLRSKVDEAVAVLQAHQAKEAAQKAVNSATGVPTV

Protein S100-A4 = Protein S100-A4 (Homo sapiens, UniProt P26447); assay: human S100A4 peptide interaction inhibition curves – biochemical, fluorescence polarization, cherry-picked hits, dose response (AID 687001); assay type: functional
Sequence of Protein S100-A4 (P26447 whole entry): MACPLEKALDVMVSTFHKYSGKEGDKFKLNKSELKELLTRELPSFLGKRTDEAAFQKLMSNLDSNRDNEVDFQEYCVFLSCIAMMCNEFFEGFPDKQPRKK

[10] = target: T1, Intestinal-type alkaline phosphatase (Homo sapiens, UniProt P09923); assay: Dose Response confirmation of uHTS hits from a small molecule inhibitors of human intestinal alkaline phosphatase via a luminescent assay. [Related pubchem assays (depositor defined):AID2544, AID2574]; assay type: functional
T1 sequence (P09923 whole entry): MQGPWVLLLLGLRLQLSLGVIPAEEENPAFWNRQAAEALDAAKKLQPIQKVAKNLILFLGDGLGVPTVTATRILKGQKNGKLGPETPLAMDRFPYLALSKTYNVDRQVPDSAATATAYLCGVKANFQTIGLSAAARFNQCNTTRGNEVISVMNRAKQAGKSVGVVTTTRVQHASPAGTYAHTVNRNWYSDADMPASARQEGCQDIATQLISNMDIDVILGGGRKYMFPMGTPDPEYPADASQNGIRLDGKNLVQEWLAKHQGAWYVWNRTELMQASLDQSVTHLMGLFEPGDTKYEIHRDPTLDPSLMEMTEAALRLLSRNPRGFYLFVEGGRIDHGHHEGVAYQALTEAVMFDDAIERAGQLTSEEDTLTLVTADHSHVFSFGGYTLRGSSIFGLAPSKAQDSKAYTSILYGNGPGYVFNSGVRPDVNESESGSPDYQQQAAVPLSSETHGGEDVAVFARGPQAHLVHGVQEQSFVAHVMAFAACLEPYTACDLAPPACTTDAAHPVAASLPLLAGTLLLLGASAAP

[11] = target: T1, Intestinal-type alkaline phosphatase; assay: human intestinal alkaline phosphatase activators, dose response, biochemical, luminescence, uHTS hits (AID 463120); assay type: functional

Compound: CCOc1ccc(NC(=O)c2ccc([N+](=O)[O-])o2)cc1
- EC50 (HEK293 [1]): 2.77 µM (active)
- EC50 [2]: > 8 µM (not active)
- EC50 (HEK293 [3]): > 8 µM (not active)
- EC50 (HEK293 [4]): > 8 µM (inactive)
- EC50 (HEK293 [5]): > 8 µM (not active)
- IC50 (HEK293 [6]): 50.6 µM (inactive)
- IC50 (Jurkat): 38.9 µM (inactive)
- IC50 (HEK293 [7]): 39.9 µM (inactive)

Compound: Cc1cc2cc(CNC(=O)Nc3ccc(Cl)c(Cl)c3)ccc2n1C
- IC50 [8]: 5.7 µM (active)
- IC50 [9]: 4.53 µM (active)
- AC50 (Protein S100-A4): 1.74 µM (active)

Compound: O=C(Nc1cccc(-c2cccc(F)c2)c1)C1CCN(C2CCC2)CC1
- IC50 [10]: > 100 µM (inactive)
- EC50 [11]: > 100 µM (inactive)
